The text below walks through data of patent US20250163075A1, “HETEROBI[…] PROTEIN […]” (priority 2023, published 2025).

SMILES strings stand for the structures.

The target of experiment [1] is T1, KLHDC2 (Homo sapiens (Human), UniProt Q9Y2U9). Put plainly: Time-resolved fluorescence energy transfer (TR-FRET) assay with Bodipy-labeled ligand probe. The experiment is classed as binding. The text has this: The integration start was set to 100 μs, and the integration time was set to 200 μs. The number of flashes was fixed at 100.
T1 sequence (Q9Y2U9 whole entry): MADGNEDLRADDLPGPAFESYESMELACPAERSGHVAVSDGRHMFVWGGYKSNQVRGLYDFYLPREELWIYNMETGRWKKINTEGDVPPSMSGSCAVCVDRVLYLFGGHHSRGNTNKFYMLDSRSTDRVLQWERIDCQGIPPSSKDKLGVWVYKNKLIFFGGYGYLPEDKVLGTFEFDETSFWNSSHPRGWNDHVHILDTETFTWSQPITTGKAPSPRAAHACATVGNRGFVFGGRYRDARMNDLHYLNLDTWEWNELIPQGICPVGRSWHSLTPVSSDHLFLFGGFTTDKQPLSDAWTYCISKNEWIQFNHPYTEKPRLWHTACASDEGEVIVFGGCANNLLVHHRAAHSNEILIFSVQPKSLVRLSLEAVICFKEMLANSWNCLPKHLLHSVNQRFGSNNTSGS
Experiment [2] addresses T1, KLHDC2. As to the kind of experiment: Sypro orange thermal stability (thermal shift) assay. The experiment is classed as binding. As for the experimental part: To identify small molecules that bind to KLHDC2 the Sypro orange thermal stability assay was utilized. […] Assay solution containing 0.5 μM KLHDC2, 25 mM HEPES, 200 mM NaCl and 5% Sypro Orange pH 7.5 was added to a final volume of 20 ul and a final experimental ligand concentration of 50 uM. DMSO alone was included as a negative control and peptide sub2 was included as a positive control at 100 uM. The fluorescence of Sypro orange in each sample was measured on a Quantstudio 5 or a Quantstudio 6 at temperatures ranging from 23 to 75° C. at 0.05° C./second. Data reduction resulting in thermal stability (calculated using the Boltzmann and first derivative minima equations) was completed in the Thermo Scientific protein thermal shift software v1.4.

`O=C(O)CNC(=O)Cc1csc(-c2ccc3cccc(OCCN4CCNCC4)c3c2)n1` [Compound 19, (2-(2-(8-(2-(Piperazin-1-yl)Ethoxy)Naphthalen-2-yl)Thiazol-4-yl)Acetyl)Glycine] gave an IC50 against KLHDC2 [1] (Table 2) of 1.6 µM. Moreover, at KLHDC2 [2] (Table 2, 0.5 μM KLHDC2), the “ΔTm (° C.) 50 μM ligand” value is 4.8 ± 0.0 °C. In turn, `O=C(O)CNC(=O)Cc1csc(-c2cccc3ccccc23)n1` [Compound 12, (2-(2-(Naphthalen-1-yl)Thiazol-4-yl)Acetyl)Glycine] showed an IC50 against KLHDC2 [1] (Table 1) of 8.8 µM. Besides, on KLHDC2 [2] (Table 1, 0.5 μM KLHDC2), the “ΔTm (° C.) 50 μM ligand” value was 3.7 ± 0.0 °C. At KLHDC2 [1] (Table 1), `O=C(O)CNC(=O)Cc1csc(-c2cccc3cccnc23)n1` [Compound 11, (2-(2-(Quinolin-8-yl)Thiazol-4-yl)Acetyl)Glycine] came in with an IC50 of 7.1 µM. Further, the “ΔTm (° C.) 50 μM ligand” value on KLHDC2 [2] (Table 1, 0.5 μM KLHDC2) is 2.7 ± 0.4 °C.

`O=C(O)CNC(=O)Cc1csc(-c2ccc3c(c2)NCCO3)n1` [Compound 27, (2-(2-(3,4-Dihydro-2H-Benzo[B][1,4]Oxazin-6-yl)Thiazol-4-yl)Acetyl)Glycine]: the IC50 at KLHDC2 [1] (Table 1) was found to be 3 µM. In turn, `O=C(O)CNC(=O)Cc1csc(-c2ccc3ccn(CCCN4CCNCC4)c3c2)n1` [Compound 24, (2-(2-(1-(3-(Piperazin-1-yl)Propyl)-1H-Indol-6-yl)Thiazol-4-yl)Acetyl)Glycine] registered an IC50 on KLHDC2 [1] (Table 2) of 1.2 µM. That is a single-digit micromolar value.

At KLHDC2 [1] (Table 2), `COCCOc1cccc2ccc(-c3nc(CC(=O)NCC(=O)O)cs3)cc12` [Compound 15A] showed an IC50 of 1.1 µM. Also, the “ΔTm (° C.) 50 μM ligand” value on KLHDC2 [2] (Table 2, 0.5 μM KLHDC2) was determined as 4.3 ± 0.2 °C.

`COc1ccc2cc(-c3nc(CC(=O)NCC(=O)O)cs3)ccc2c1` [Compound 10, (2-(2-(6-Methoxynaphthalen-2-yl)Thiazol-4-yl)Acetyl)Glycine] had a 50% inhibitory concentration (IC50) on KLHDC2 [1] (Table 1) of 9.6 µM. Also, at KLHDC2 [2] (Table 1, 0.5 μM KLHDC2), the “ΔTm (° C.) 50 μM ligand” value was 3.9 ± 0.1 °C. Take `O=C(O)CNC(=O)Cc1csc(-c2cccc3ccncc23)n1` [Compound 9, (2-(2-(Isoquinolin-8-yl)Thiazol-4-yl)Acetyl)Glycine]: half-maximal inhibition at KLHDC2 [1] (Table 1) (IC50) required 20.3 µM. Also, the “ΔTm (° C.) 50 μM ligand” value at KLHDC2 [2] (Table 1, 0.5 μM KLHDC2) worked out at 1.8 ± 0.0 °C. The matching figures for `O=C(O)CNC(=O)Cc1csc(-c2ccc3ccccc3c2)n1` [Compound 8, (2-(2-(Naphthalen-2-yl)Thiazol-4-yl)Acetyl)Glycine]: 3.9 µM and 6.0 ± 0.0 °C.

Regarding `O=C(O)CNC(=O)Cc1csc(-c2ccc3ccccc3c2F)n1` [Compound 13, (2-(2-(1-Fluoronaphthalen-2-yl)Thiazol-4-yl)Acetyl)Glycine], at KLHDC2 [1] (Table 1), it took 1.8 µM to reach half-maximal inhibition (IC50). For the same molecule, at KLHDC2 [2] (Table 1, 0.5 μM KLHDC2), the “ΔTm (° C.) 50 μM ligand” value stood at 6.0 ± 0.2 °C. The matching figures for `COCOc1ccc(-c2nc(CC(=O)NCC(=O)O)cs2)c(Cl)c1` [i]: 24.1 µM and 3.52 ± 0.424 °C. Taken in the same sequence, the figures for `COc1ccc2ccc(-c3nc(CC(=O)NCC(=O)O)cs3)cc2c1` [Compound 14, (2-(2-(7-Methoxynaphthalen-2-yl)Thiazol-4-yl)Acetyl)Glycine] were 1.7 µM and 4.3 ± 0.2 °C. At KLHDC2 [1] (Table 1), `O=C(O)CNC(=O)Cc1csc(-c2ccc3cc[nH]c3c2)n1` [Compound 23, (2-(2-(1H-Indol-6-yl)Thiazol-4-yl)Acetyl)Glycine] showed an IC50 of 1.1 µM. In other words, the single-digit micromolar range.
